In brackets after ≈: the same amount, converted by molar mass. Read-outs that look alike come from different tables or passages of the source.
Experiments:
[1] = system: Trichophyton mentagrophytes; assay type: cell-based; conditions: 72 h, 100 ppm
Procedure: 31.3 ml of Trichophyton mentagrophytes to be tested was added to 125 ml of a potato dextrose agar culture medium (Nissui Seiyaku Co.). The medium was stirred not to foam the solutions, poured into plates uniformly and solidified.
Thereafter, predetermined amounts of the compounds of the invention were weighted and diluted with acetone to predetermined concentrations.
Paper disks were impregnated with samples containing predetermined amounts of the compounds of the invention, laid on a filter, dried with air and placed on a plate containing test microbe at equal intervals.
Trichophyton mentagrophytes was cultured at 28 °C for 3 days in a thermostatic chamber and the diameter of each inhibiting zone was measured to evaluate the activity of each compound. Symbols in the table mean the followings; • A: Trichophyton mentagrophytes, • ++: strongly inhibiting zone (equal to or more than 21 mm) is observed, • +: inhibiting zone (10 to 20 mm) is observed, • -: no inhibiting zone is observed.

Bacillus subtilis [2] = assay: Agar dilution MIC (Example 2); assay type: cell-based; conditions: agar plate, 37±1 °C, 18 to 20 hours
Procedure: (§1) Series of diluted samples (20000, 10000, 5000, 2500, 2000, 1250, 625, 313, 156, 78, 39, 20, 10, 5, 2.5, 1.25 mg/l) of the compounds of the invention were prepared using dimethylsulfoxide. A sensitive culture medium-N (Nissui Seiyaku Co.) was used for bacteria and a potato dextrose agar culture medium (Nissui Seiyaku Co.) was used for fungi. 0.5 ml of each sample was added to and mixed with 9.5 ml of the culture medium, poured into a Petri dish and solidified to obtain a plate. As a result, the concentration of the compounds of the invention in the agar culture medium were 1000, 500, 250, 125, 100, 62.5, 31.3, 15.6, 7.8, 3.9, 2.0, 1.0, 0.5, 0.25, 0.125, 0.062 mg/l. The bacterium inoculated were cultured in a bouillon for the assay of sensitivity (Nissui Seiyaku Co.) at 37 °C for 20 hours, and the fungi were cultured in the potato dextrose agar culture medium (Nissui Seiyaku Co.) for 10 days and then a 10^6 CFU/ml suspension was prepared from each of them. A test bacteria or fungi suspension was streaked on an agar plate containing the compound of the present invention with platinum wire loop, and the agar plate was cultured at 37±1 °C for 18 to 20 hours for bacteria or at 27 °C for 7 days for fungi. A concentration at which no growth was seen was taken as minimum inhibitory concentration [MIC(mg/l)]. Symbols in the table mean the followings; • A: Bacillus subtilis, • B: Trichophyton mentagrophytes, • C: Rhodotorula mucilaginosa.

[3] = system: Trichophyton mentagrophytes; assay: Agar dilution MIC (Example 2); assay type: cell-based; conditions: 168 h, agar plate, 27 °C, 7 days
Procedure: as §1

Bacillus subtilis [4] = assay: Agar dilution MIC (Example 3); assay type: cell-based; conditions: agar plate, 37±1 °C, 18 to 20 hours
Procedure: (§2) Series of diluted samples (20000, 10000, 5000, 2500, 1250, 625, 313, 156, 78, 39 mg/l) of the compounds of the invention were prepared using dimethylsulfoxide. A sensitive culture medium-N (Nissui Seiyaku Co.) was used for bacteria and a potato dextrose agar culture medium (Nissui Seiyaku Co.) was used for fungi. 0.5 ml of each sample was added to and mixed with 9.5 ml of the culture medium, poured into a Petri dish and solidified to obtain a plate. As a result, the concentration of the compounds of the invention in the agar culture medium were 1000, 500, 250, 125, 62.5, 31.3, 15.6, 7.8, 3.9, 2.0 mg/l. The bacterium inoculated were cultured in a bouillon for the assay of sensitivity (Nissui Seiyaku Co.) at 37 °C for 20 hours, and the fungi were cultured in the potato dextrose agar culture medium (Nissui Seiyaku Co.) for 10 days and then a 10^6 CFU/ml suspension was prepared from each of them. A test bacteria or fungi suspension was streaked on an agar plate containing the compound of the present invention with platinum wire loop, and the agar plate was cultured at 37±1 °C for 18 to 20 hours for bacteria or at 27 °C for 7 days for fungi. A concentration at which no growth was seen was taken as minimum inhibitory concentration (MIC). Symbols in the tables mean the followings; • A: Bacillus subtilis, • B: Trichophyton mentagrophytes, • C: Staphylococcus aureus, • D: Aspergillus niger, • E: Penicillium funiculosum, • F: Candida albicans, • G: Micrococcus luteus, • H: Corynebacterium aquaticum, • I: Chaetomium globosum, • J: Fusarium moniliforme, • K: Saccharomyces cerevisiae, • L: Rhodotorula rubra, • M: Cladosporium cladosporioides, • N: Alternaria alternata.

Staphylococcus aureus = assay: Agar dilution MIC (Example 3); assay type: cell-based; conditions: agar plate, 37±1 °C, 18 to 20 hours
Procedure: as §2

[5] = system: Trichophyton mentagrophytes; assay: Agar dilution MIC (Example 3); assay type: cell-based; conditions: 168 h, agar plate, 27 °C, 7 days
Procedure: as §2

[6] = system: freshwater green alga (Selenastrum capricornutum); assay: Inhibition of propagation of freshwater green alga (Example 4); assay type: cell-based; conditions: for inhibition at 0.05 ppm: read-out: Propagation inhibiting rate(%) 50ppb; for inhibition at 0.5 ppm: read-out: Propagation inhibiting rate(%) 500ppb
Procedure: A predetermined amount of each of the compounds of the invention was dissolved in a culture medium containing 10^5 /ml of a freshwater green alga (Selenastrum capricornutum) at a logarithmic growth phase to prepare samples having a concentration of the compound of the invention in the medium of 500 ppb and 50ppb respectively. The samples were stationary cultured at 23±1 °C for […] under continuous illumination.
After 72 hours, the number of cells was measured using a hemacytometer to obtain propagation rate. The propagation inhibiting rate was calculated from comparison with the non-treated lot.

Alternaria alternata = assay: Agar dilution MIC (Example 3); assay type: cell-based; conditions: 168 h, agar plate, 27 °C, 7 days
Procedure: as §2

Aspergillus niger = assay: Agar dilution MIC (Example 3); assay type: cell-based; conditions: 168 h, agar plate, 27 °C, 7 days
Procedure: as §2

Candida albicans = assay: Agar dilution MIC (Example 3); assay type: cell-based; conditions: 168 h, agar plate, 27 °C, 7 days
Procedure: as §2

Chaetomium globosum = assay: Agar dilution MIC (Example 3); assay type: cell-based; conditions: 168 h, agar plate, 27 °C, 7 days
Procedure: as §2

[7] = system: Cladosporium cladosporioides; assay: Agar dilution MIC (Example 3); assay type: cell-based; conditions: 168 h, agar plate, 27 °C, 7 days
Procedure: as §2

[8] = system: Corynebacterium aquaticum; assay: Agar dilution MIC (Example 3); assay type: cell-based; conditions: Leifsonia aquatica, agar plate, 37±1 °C, 18 to 20 hours
Procedure: as §2

Fusarium moniliforme = assay: Agar dilution MIC (Example 3); assay type: cell-based; conditions: Fusarium verticillioides, 168 h, agar plate, 27 °C, 7 days
Procedure: as §2

Penicillium funiculosum = assay: Agar dilution MIC (Example 3); assay type: cell-based; conditions: Talaromyces funiculosus, 168 h, agar plate, 27 °C, 7 days
Procedure: as §2

Rhodotorula rubra = assay: Agar dilution MIC (Example 3); assay type: cell-based; conditions: 168 h, agar plate, 27 °C, 7 days
Procedure: as §2

Saccharomyces cerevisiae = assay: Agar dilution MIC (Example 3); assay type: cell-based; conditions: 168 h, agar plate, 27 °C, 7 days
Procedure: as §2

[9] = system: seawater diatom [Nitzschia closterium]; assay: Inhibition of propagation of seawater diatom (Example 5); assay type: cell-based; conditions: Cylindrotheca closterium, 72 h, read-out: Propagation inhibiting rate(%) 500ppb
Procedure: A predetermined amount of each of the compounds of the invention was dissolved in culture media containing 10^5 /ml of a seawater diatom [Nitzschia closterium] at a logarithmic growth phase to prepare samples having a concentration of the compound in the medium of 500 ppb. The samples were stationary cultured at 22±1 °C for […] under continuous illumination.
After 72 hours, cells were collected by centrifugation and disrupted by addition of methanol to extract chlorophyll, and the amount of chlorophyll was measured from absorbance using a spectrophotometer to obtain propagation rate. The propagation inhibiting rate was calculated from comparison with the non-treated lot.

[10] = system: freshwater green alga (Scenedesmus pannonicus); assay: Inhibition of propagation of freshwater algae (Example 6); assay type: cell-based; conditions: Desmodesmus pannonicus, 500ppb
Procedure: A predetermined amount each of the compounds of the invention was dissolved in a culture medium containing 10^5 /ml of a freshwater alga at a logarithmic growth phase to prepare samples having a concentration of the compound of the invention in the medium of 500 ppb and 50 ppb respectively. A shaking culture at 100 rpm was performed for […] under continuous illumination at 20±2 °C for freshwater diatom and at 23±2 °C for other algae.
After 72 hours and 168 hours, the […] of cells was measured using a hemacytometer to obtain propagation rate. The propagation inhibiting rate was calculated from comparison with the non-treated lot. Symbols in the tables mean the followings; • A: freshwater green alga (Chlorella pyrenoidosa), • B: freshwater blue-green alga (Microcystis aeruginosa), • C: freshwater diatom (Diatoma elongatum), • D: freshwater green alga (Scenedesmus pannonicus).

blue mussel = assay: Antifouling (adhesion repellent) activity against blue mussel (Example 7); assay type: in vivo, Mytilus edulis; parameters: key: ++: not adhered in the zone and strong repellent effect is observed; +: adhesion in zone is observed but most of them adhered out of zone and repellent effect is observed; -: adhered in and out of zone alike and repellent effect is not observed; conditions: seawater, dark, 3 hours
Procedure: The compound of the invention was completely dissolved in 1 ml of acetone and the resulting solution was uniformly applied to a 4 cm-diameter zone drawn on a test plate. A zone coated with acetone alone as blank and zones coated with 1.0 mg and 0.5 mg of copper sulfate as a comparison chemical were also prepared. After drying, four blue mussel having a shell length of about 2 to 2.5 cm were adhered around each zone using a rubber piece as a spacer. The thus prepared test plate was immersed in a water tank to which seawater ran and left to stand in the dark for 3 hours.
The adhesion controlling effect (adhesion repellent activity) was obtained from comparison with copper sulfate used as a comparison chemical.
The evaluation of adhesion repellent activity was based on "Evaluation method of adhesion repellent substance to marine adhesion organisms using Mytilus edulis" written by Kazuo Ina and Hideo Etoh (Chemistry and Biology, vol.28 (No.2), pp.132-138, 1990).
Symbols in the table mean the followings; • ++: not adhered in the zone and strong repellent effect is observed, • +: adhesion in zone is observed but most of them adhered out of zone and repellent effect is observed, • -: adhered in and out of zone alike and repellent effect is not observed.

Rhodotorula mucilaginosa = assay: Agar dilution MIC (Example 2); assay type: cell-based; conditions: 168 h, agar plate, 27 °C, 7 days
Procedure: as §1

Micrococcus luteus = assay: Agar dilution MIC (Example 3); assay type: cell-based; conditions: agar plate, 37±1 °C, 18 to 20 hours
Procedure: as §2

[11] = 500ppb, after 72 hours, cell number vs non-treated lot

SMILES | Judgment (Target bacteria: A) [1] | MIC (Bacillus subtilis [2]) [µg/mL] | MIC [3] [µg/mL] | MIC (Bacillus subtilis [4]) [µg/mL] | MIC [5] [µg/mL] | MIC (Alternaria alternata) [µg/mL] | MIC (Aspergillus niger) [µg/mL] | MIC (Candida albicans) [µg/mL] | MIC (Chaetomium globosum) [µg/mL] | MIC [7] [µg/mL] | MIC [8] [µg/mL] | MIC (Penicillium funiculosum) [µg/mL] | MIC (Rhodotorula rubra) [µg/mL] | MIC (Saccharomyces cerevisiae) [µg/mL] | inhibition at 0.5 ppm [6, 11] [%] | inhibition at 0.5 ppm [9] [%] | further results
CN(Cc1ccc(C(C)(C)C)cc1)Cc1ccc(Cl)c(Cl)c1 [Compound 3] | + (inhibiting zone (10 to 20 mm) is observed) | 125 (≈ 372 µM) | < 2 | 125 (≈ 372 µM) | < 2 |  |  |  |  |  |  |  |  |  |  |  | MIC (Staphylococcus aureus): 125 µg/mL (≈ 372 µM); inhibition at 0.05 ppm ([6]; 72 h): 90%; inhibition at 0.5 ppm ([6]; 72 h): 94%
Cc1cccc(CN(C)Cc2ccc(C(C)(C)C)cc2)c1C [Compound 4] | ++ (strongly inhibiting zone (equal to or more than 21 mm) is observed) |  | < 2 |  | < 2 | 31.3 (≈ 106 µM) | 15.6 (≈ 52.8 µM) | 62.5 (≈ 212 µM) | 31.3 (≈ 106 µM) | 31.3 (≈ 106 µM) | 31.3 (≈ 106 µM) | 15.6 (≈ 52.8 µM) | 63 (≈ 213 µM) | 63 (≈ 213 µM) | 95 | 70 | MIC (Fusarium moniliforme): 31.3 µg/mL (≈ 106 µM); inhibition at 0.05 ppm ([6]; 50ppb, after 72 hours, cell number vs non-treated lot): 64%
CN(Cc1ccc(C(C)(C)C)cc1)C1CCc2ccccc21 (stereo not shown) [Compound 7] | ++ (strongly inhibiting zone (equal to or more than 21 mm) is observed) |  | 1 (≈ 3.41 µM) |  | < 2 |  |  |  |  |  |  |  |  |  | 62 | 91 | inhibition at 0.5 ppm ([10]; 72hr, read-out: Propagation inhibiting rate (%) 500ppb 72hr): 92%; inhibition at 0.5 ppm ([10]; 168hr, read-out: Propagation inhibiting rate (%) 500ppb 168hr): 99%; Judgment (adhesion repellent activity against blue mussel) (blue mussel; Amount of chemical 2.0 mg on 4 cm-diameter zone): ++
CC(C)(C)c1ccc(CNCc2cccc(Cl)c2Cl)cc1 [Compound 16] |  | 7.8 (≈ 24.2 µM) | 7.8 (≈ 24.2 µM) | 7.8 (≈ 24.2 µM) | 7.8 (≈ 24.2 µM) |  | 125 (≈ 388 µM) | 62.5 (≈ 194 µM) |  |  |  | 62.5 (≈ 194 µM) |  |  | 90 | 80 | 
Cc1cccc(CNCc2ccc(C(C)(C)C)cc2)c1C [Compound 27] |  | 31.3 (≈ 111 µM) | 7.8 (≈ 27.7 µM) |  |  | 125 (≈ 444 µM) |  |  | 63 (≈ 224 µM) | 125 (≈ 444 µM) | 7.8 (≈ 27.7 µM) |  | 125 (≈ 444 µM) | 63 (≈ 224 µM) | 89 | 90 | MIC (Rhodotorula mucilaginosa): 15.6 µg/mL (≈ 55.4 µM); MIC (Micrococcus luteus): 15.6 µg/mL (≈ 55.4 µM)
O=S(=O)([O-])[O-].[Cu+2] [Copper sulfate] |  |  |  |  |  |  |  |  |  |  |  |  |  |  |  |  | Judgment (adhesion repellent activity against blue mussel) (blue mussel; Amount of chemical 0.5 mg on 4 cm-diameter zone): -; Judgment (adhesion repellent activity against blue mussel) (blue mussel; Amount of chemical 1.0 mg on 4 cm-diameter zone): +

Source: patent publication EP1059033A1, “INDUSTRIAL ANTIBACTERIAL/ANTIFUNGAL AGENTS, ALGICIDES AND ANTI-BIOLOGICAL ADHESION AGENTS CONTAINING BENZYLAMINES” (Nissan Chemical Industries, Ltd., priority 1998, dated 1999)
